Where two headings read alike, the source gives them in different places.
Columns and labels:
[1] = molecular target: T1, wild type HIV-1 reverse transcriptase (Human immunodeficiency virus type 1 group M subtype B, UniProt P04585); assay: Kinetics of nucleotide incorporation by wild type HIV-1 reverse transcriptase; assay type: biochemical; settings: RT WT
T1 construct: a mixture of 100 nM HIV-1 reverse transcriptase and 300 nM primer/template
Protocol: Continued research on the guanosine prodrug approach for making D4G a viable anti-HIV agent has yielded a number of new findings. In the present example, enzyme kinetics for the incorporation of the active metabolites of guanosine prodrugs with wild type HIV-1 reverse transcriptase was determined. In this experiment, a mixture of 100 nM HIV-1 reverse transcriptase and 300 nM primer/template in which the correct base incorporation is a guanine nucleotide was rapidly mixed with nucleotide in the presence of 50 mM Tris, 50 mM NaCl and 10 mM MgCl2 for a set amount of time and then the reaction was stopped by the addition 300 mM of EDTA.

[2] = molecular target: T1, wild type HIV-1 reverse transcriptase; set-up: kpol/Kd: unit not given here; settings: from Ray and Anderson or Furman et al., cited from earlier work
[3] = system: HIV IIIB; assay: Anti-HIV activity in MT-2 cells infected with HIV IIIB, MTT dye cell viability; assay type: cell-based; settings: read-out: EC50 (concentration necessary to save 50% of the cells)
Protocol: To assess the ability of the compounds according to the present invention to inhibit viral infection relative to other compounds experiments were performed in the MT-2 cell line, as previously described by Larder, et al., Antimicrobial Agents & Chemotherapy, vol. 34, 436 (1990). […] Cells were infected at an initial multiplicity of infection (MOI) of 0.1 and grown for 5 days. Cell viability was assessed by the use of dye metabolized by viable cells.

[4] = system: MT-2; assay: Toxicity, dye based cell growth assay in absence of HIV, MT-2; settings: read-out: IC50 (inhibited 50% of the cell growth)
Protocol: (§1) To determine the toxicity of the compounds to various cell lines (Table 1, below), a similar dye based assay is performed in the absence of HIV. The toxicity of the compounds alone therefore was determined.

[5] = system: CEM; assay: Toxicity, dye based cell growth assay, CEM; settings: read-out: IC50 (inhibited 50% of the cell growth)
Protocol: as §1

[6] = system: HEP-G2; assay: Toxicity, dye based cell growth assay, HEP-G2; settings: read-out: IC50 (inhibited 50% of the cell growth)
Protocol: as §1

[7] = system: KB; assay: Toxicity, dye based cell growth assay, KB
Protocol: as §1

[8] = system: HeLa; assay: Toxicity, dye based cell growth assay, HeLa
Protocol: as §1

[9] = system: mitochondrial DNA in CEM cells; assay: Mitochondrial toxicity: ratio of mitochondrial DNA to Alu repeat in CEM cells; assay type: cell-based; settings: 8 days
Text: After 8 days of growth the cells were lysed and probed for the amount of mitochondrial DNA and normalized for differences in the amount of total DNA by probing for the Alu repeat. By comparing the amount of mitochondrial DNA to the amount of Alu repeat the % decrease in mitochondrial DNA in the presence of various concentrations of drug can be obtained. All experiments were done in triplicate. Techniques which are presented here have been previously described in Chen and Cheng, J. Biol. Chem., vol. 264, 11934-7 (1989).

[10] = system: HIV; assay: Anti-HIV drug combination (synergy, isobologram of FEC50) in cell culture; assay type: cell-based
Protocol: Points on this line represent the compounds working independently.
In an attempt to understand how D4G prodrugs of the present invention would interact with other clinically approved compounds, experiments were performed with drug combinations. […] Points on the line represent two compounds working independently. […] See, Bridges, et al., Biochem. Pharmacol., 51, 731 (1996) and Dutschman, et al., Antimicro. Agents Chemother. 42, 1799 (1998).

[11] = system: HIV; settings: pairs: D4T and AZT, 3TC and ddC, FD4C and 3TC, abacavir and cyclo D4G; Bridges et al., Dutschman et al.; cited from earlier work
[12] = molecular target: T2, mitochondrial polymerase gamma (Homo sapiens, UniProt P54098); assay: Nucleotide incorporation by mitochondrial polymerase gamma into an elongating DNA strand; assay type: biochemical; settings: mitochondrial polymerase gamma, incorporation
T2 sequence (P54098 1-1239): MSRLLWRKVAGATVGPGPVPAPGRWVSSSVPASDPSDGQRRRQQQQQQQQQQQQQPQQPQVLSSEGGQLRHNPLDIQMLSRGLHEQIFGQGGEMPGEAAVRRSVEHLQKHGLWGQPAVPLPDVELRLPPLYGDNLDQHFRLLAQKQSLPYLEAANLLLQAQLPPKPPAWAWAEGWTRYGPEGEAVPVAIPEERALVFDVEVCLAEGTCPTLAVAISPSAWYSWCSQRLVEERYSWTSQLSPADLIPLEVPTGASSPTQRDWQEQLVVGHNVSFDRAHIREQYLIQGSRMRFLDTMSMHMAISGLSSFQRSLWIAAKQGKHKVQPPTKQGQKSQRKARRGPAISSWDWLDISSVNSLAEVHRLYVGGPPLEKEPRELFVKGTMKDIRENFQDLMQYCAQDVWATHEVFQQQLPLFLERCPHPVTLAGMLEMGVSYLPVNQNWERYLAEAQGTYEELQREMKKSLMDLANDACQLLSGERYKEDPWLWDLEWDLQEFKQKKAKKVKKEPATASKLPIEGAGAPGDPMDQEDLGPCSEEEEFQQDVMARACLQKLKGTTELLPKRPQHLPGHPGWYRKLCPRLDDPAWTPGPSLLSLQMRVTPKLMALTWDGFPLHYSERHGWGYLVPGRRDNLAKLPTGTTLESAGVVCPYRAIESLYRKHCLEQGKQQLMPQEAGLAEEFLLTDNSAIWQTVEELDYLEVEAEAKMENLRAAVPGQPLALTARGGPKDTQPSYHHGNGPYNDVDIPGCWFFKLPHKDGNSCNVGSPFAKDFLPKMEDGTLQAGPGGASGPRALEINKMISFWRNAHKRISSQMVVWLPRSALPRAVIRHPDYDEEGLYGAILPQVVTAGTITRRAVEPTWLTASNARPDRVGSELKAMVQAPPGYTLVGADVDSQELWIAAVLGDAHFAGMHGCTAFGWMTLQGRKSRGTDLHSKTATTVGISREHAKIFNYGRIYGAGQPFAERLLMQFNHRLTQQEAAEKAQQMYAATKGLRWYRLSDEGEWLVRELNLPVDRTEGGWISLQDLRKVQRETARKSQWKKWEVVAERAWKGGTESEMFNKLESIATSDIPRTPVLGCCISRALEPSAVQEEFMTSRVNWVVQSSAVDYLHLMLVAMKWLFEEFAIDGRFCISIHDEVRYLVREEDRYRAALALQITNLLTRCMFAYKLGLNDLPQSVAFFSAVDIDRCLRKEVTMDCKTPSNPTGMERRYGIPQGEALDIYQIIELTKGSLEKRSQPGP

[13] = Table 4, primer/template DNA/DNA
[14] = Table 4, primer/template DNA/RNA
[15] = Human immunodeficiency virus 1, IIIB, MT2, 120 h
[16] = Homo sapiens, MT2, 120 h, MT-2, HTLV infected T cell line, 5 days
[17] = Homo sapiens, CCRF-CEM, 120 h, CEM, T cell line, 5 days
[18] = Homo sapiens, HepG2, 120 h, HEP-G2, hepatoma cell line, 5 days
[19] = Homo sapiens, 120 h, read-out: IC50 (inhibited 50% of the cell growth), oral carcinoma, 5 days
[20] = Homo sapiens, 120 h, read-out: IC50 (inhibited 50% of the cell growth), cervical cancer cell line, 5 days
[21] = Human immunodeficiency virus 1, MT2, 120 h, MT-2 cells, HIV IIIB, MOI 0.1, 5 days, MTT, NA = No Activity at concentrations up to 100 uM, EC50 not achievable due to toxicity
[22] = Homo sapiens, 120 h, read-out: IC50 (inhibited 50% of the cell growth)

## Nc1nc2c(ncn2C2C=CC(COP(=O)(O)OP(=O)(O)OP(=O)(O)O)C2)c(=O)[nH]1 (single isomer, unassigned; (-)) [CBVTP, (−) carbovir-TP]
[1]; [13]
  Efficiency: 0.05 ± 0.01 s^−1μM^−1
  Kd: 21 ± 3 µM
  Selectivity = efficiency dGTP/efficiency analog: 30
  kpol: 1.0 ± 0.06 s⁻¹
[1]; [14]
  Efficiency: 0.42 ± 0.06 s^−1μM^−1
  Kd: 3.7 ± 0.5 µM
  Selectivity = efficiency dGTP/efficiency analog: 10
  kpol: 1.5 ± 0.05 s⁻¹
[2]; Table 3, substrate DNA/DNA
  Selectivity = (kpol/Kd)dGTP/(kpol/Kd)analog: 30
  kpol: 1.0 ± 0.06 s⁻¹
  kpol/Kd: 0.05 ± 0.01
[2]; Table 3, substrate DNA/RNA
  Selectivity = (kpol/Kd)dGTP/(kpol/Kd)analog: 10
  kpol: 1.5 ± 0.05 s⁻¹
  kpol/Kd: 0.42 ± 0.06

## Nc1nc(NC2CC2)c2ncn([C@H]3C=C[C@@H](CO)C3)c2n1 [Abacavir]
[3]; [15]
  EC50: 2 ± 0.4 µM
[4]; [16]
  IC50: 60 ± 13 µM
[5]; [17]
  IC50: 200 ± 50 µM
[6]; [18]
  IC50: 180 ± 12 µM
[7]; [19]
  IC50: 200 ± 21 µM
[8]; [20]
  IC50: 500 ± 33 µM
[9]; human, 1 μM
  % Control (mtDNA/Alu): 110%
  Ration of mtDNA/Alu: 1.18 ± 0.03
[9]; human, 10 μM
  % Control (mtDNA/Alu): 119%
  Ration of mtDNA/Alu: 1.27 ± 0.06
[9]; human, 200 μM
  % Control (mtDNA/Alu): 127%
  Ration of mtDNA/Alu: 1.36 ± 0.06
[10]; FIG. 3 and FIG. 4
  anti-HIV interaction in combination with 3TC: merely additive
[11]
  anti-HIV interaction of two analogs of the same base: not synergistic

## Nc1nc(N)c2ncn([C@H]3CO[C@@H](CO)O3)c2n1 [DAPD]
[3]; MT-2 cells, HIV IIIB, MOI 0.1, 5 days, MTT, NA = No Activity at concentrations up to 100 uM, EC50 not achievable due to toxicity
  EC50: 15 ± 4 µM
[4]; MT-2, HTLV infected T cell line, 5 days
  IC50: > 100 µM
[5]; CEM, T cell line, 5 days
  IC50: > 500 µM
[6]; HEP-G2, hepatoma cell line, 5 days
  IC50: 500 ± 33 µM
[7]; read-out: IC50 (inhibited 50% of the cell growth), oral carcinoma, 5 days
  IC50: > 500 µM
[8]; read-out: IC50 (inhibited 50% of the cell growth), cervical cancer cell line, 5 days
  IC50: 500 ± 33 µM

## Nc1nc2c(ncn2[C@H]2CO[C@@H](COP(=O)(O)OP(=O)(O)OP(=O)(O)O)O2)c(=O)[nH]1 [DXGTP]
[2]; Table 3, substrate DNA/DNA
  Kd: 2.5 ± 0.2 µM
  Selectivity = (kpol/Kd)dGTP/(kpol/Kd)analog: 3
  kpol: 1.46 ± 0.03 s⁻¹
  kpol/Kd: 0.58 ± 0.05
[2]; Table 3, substrate DNA/RNA
  Kd: 8.8 ± 1.1 µM
  Selectivity = (kpol/Kd)dGTP/(kpol/Kd)analog: 20
  kpol: 1.5 ± 0.1 s⁻¹
  kpol/Kd: 0.17 ± 0.02

## Nc1ccn([C@H]2CC[C@@H](CO)O2)c(=O)n1 [DdC, 2′,3′ dideoxycytodine]
[3]; [21]
  EC50: 0.3 ± 0.05 µM
[4]; [16]
  IC50: 2 ± 0.3 µM
[5]; [17]
  IC50: 3 ± 1 µM
[6]; [18]
  IC50: 25 ± 2 µM
[7]; [19]
  IC50: 100 ± 11 µM
[8]; [20]
  IC50: > 100 µM
[9]; human, 0.01 μM
  % Control (mtDNA/Alu): 87%
  Ration of mtDNA/Alu: 0.93 ± 0.06
[9]; human, 0.1 μM
  % Control (mtDNA/Alu): 65%
  Ration of mtDNA/Alu: 0.70 ± 0.04
[9]; human, 1 μM
  % Control (mtDNA/Alu): 3%
  Ration of mtDNA/Alu: 0.03 ± 0.01

## OC[C@@H]1CC[C@H](n2cnc3c(O)ncnc32)O1 [DdI, 2′,3′ dideoxyinosine]
[3]; [21]
  EC50: 20 ± 6 µM
[4]; [16]
  IC50: > 100 µM
[5]; [17]
  IC50: > 500 µM
[6]; [18]
  IC50: > 500 µM
[7]; [19]
  IC50: > 500 µM
[8]; [20]
  IC50: 500 ± 33 µM

## Nc1nc(=O)n([C@@H]2C=C[C@H](CO)O2)cc1F [FD4C]
[11]
  anti-HIV interaction of two analogs of the same base: not synergistic

## Cc1cn([C@H]2C=C[C@@H](CO)O2)c(=O)[nH]c1=O [d4T, 2′,3′-didehydro-2′,3′-dideoxythymidine]
[3]; [15]
  EC50: 3 ± 0.7 µM
[4]; Homo sapiens, MT2, 120 h
  IC50: > 100 µM
[5]; Homo sapiens, CCRF-CEM, 120 h
  IC50: 190 ± 30 µM
[6]; Homo sapiens, HepG2, 120 h
  IC50: 390 ± 26 µM
[7]; [22]
  IC50: 450 ± 47 µM
[8]; [22]
  IC50: 480 ± 31 µM
[9]; compound 1 μM, CEM cells
  % Control (mtDNA/Alu): 110%
  Ration of mtDNA/Alu: 1.18 ± 0.03
[9]; compound 10 μM, CEM cells
  % Control (mtDNA/Alu): 94%
  Ration of mtDNA/Alu: 1.00 ± 0.02
[9]; compound 200 μM, CEM cells
  % Control (mtDNA/Alu): 21%
  Ration of mtDNA/Alu: 0.22 ± 0.03
[10]; FIG. 4, D4T with AZT data not shown
  anti-HIV interaction in combination with AZT: only additive
[11]
  anti-HIV interaction of two analogs of the same base: not synergistic

## Cc1cn([C@H]2C[C@H](O)[C@@H](COP(=O)(O)OP(=O)(O)OP(=O)(O)O)O2)c(=O)[nH]c1=O [dTTP]
[12]
  Kd: 0.6 ± 0.16 µM
  kpol: 25 ± 2 s⁻¹
  kpol/Kd: 3.9e+07 ± 1.3e+07 M⁻¹ s⁻¹

— patent US6900315B2, “2-amino-9H-purin-9-yl compounds and methods for inhibiting/treating HIV infections and AIDS related symptoms” (Yale University, priority 2001, dated 2005)
